The results in this text go back to patent US20110104055A1, “SUBSTITUTED N-ARYL BENZAMIDES AND RELATED COMPOUNDS FOR TREATMENT OF AMYLOID DISEASES AND SYNUCLEINOPATHIES” (priority 2002, published 2011).

Common to all, as to assay type: biochemical
The target in experiment [1] is T1, Aβ 1-42 fibrils (Homo sapiens, UniProt P05067).
T1 construct: purchased Bachem Inc
The experiment is described as follows: Congo red binding assay, Aβ 1-42 fibrils (Example 11). As to conditions: 3-day incubation. On the procedure: (§1) In the Congo red binding assay, the ability of a test compound to alter amyloid (in this case, Aβ) binding to Congo red is quantified. In this assay, Aβ 1-42 and test compounds were incubated for 3 days and then vacuum filtered through a 0.2 μm filter. The amount of Aβ 1-42 retained in the filter was then quantitated following staining of the filter with Congo red. After appropriate washing of the filter, any lowering of the Congo red color on the filter in the presence of the test compound (compared to the Congo red staining of the amyloid protein in the absence of the test compound) was indicative of the test compound's ability to diminish/alter the amount of aggregated and congophilic Aβ.
In one study, the ability of Aβ fibrils to bind Congo red in the absence or presence of increasing amounts of the compounds or EDTA (at Aβ:test compound weight ratios of 1:1, 1:0.1, 1:0.01 or 1:0.001) was determined.

Experiment [2] concerns the target T2, α-synuclein fibrils (Homo sapiens, UniProt P37840).
T2 construct: purchased rPeptide
The experiment is described as follows: Congo red binding assay, α-synuclein fibrils (Example 12). As to conditions: 3-day incubation. On the procedure:
as §1, with “of a given test compound” for “of a test compound”, “this case, α-synuclein) binding to” for “this case, Aβ) binding to”, “this assay, α-synuclein and test” for “this assay, Aβ 1-42 and test”, “amount of α-synuclein retained in” for “amount of Aβ 1-42 retained in”, “and congophilic α-synuclein.” for “and congophilic Aβ.”
In one study, the ability of α-synuclein fibrils to bind Congo red in the absence or presence of increasing amounts of compounds DC-0051-F1, F2, F3, F4, F5, F6 and EDTA (at α-synuclein:test compound weight ratios of 1:1, 1:0.1, 1:0.01 or 1:0.001) was determined.

Experiment [3] has as its target T2, α-synuclein fibrils. Kind of experiment: Thioflavin T fluorometry, disruption of pre-formed α-synuclein fibrils (Example 12). The note with it: 3 days; for disruption/disassembly of pre-formed α-synuclein fibrils, in words: Thioflavin T fluorometry, all concentrations tested; for % Inhibition α-synuclein (result ± S.D.), Thioflavin T fluorometry: 30 μg pre-fibrillized α-synuclein, 37° C. On the procedure:
In this assay, Thioflavin T binds specifically to α-synuclein fibrils, and this binding produces a fluorescence enhancement at 485 nm that is directly proportional to the amount of α-synuclein fibrils present. The higher the fluorescence, the greater the amount of α-synuclein fibrils present (Naki et al, Lab. Invest. 65:104-110, 1991; Levine III, Protein Sci. 2:404-410, 1993; Amyloid: Int. J. Exp. Clin. Invest. 2:1-6, 1995).
In this study, 30 μg of pre-fibrillized α-synuclein (rPeptide) was incubated at 37° C. for 3 days either alone or in the presence of compounds DC-0051-F1, F2, F3, F4, F5, F6 or EDTA (at α-synuclein:test compound weight ratios of 1:1, 1:0.1, 1:0.01 or 1:0.001). Following 3-days of co-incubation, 50 μl of each incubation mixture was transferred into a 96-well microtiter plate containing 150 μl of distilled water and 50 μl of a Thioflavin T solution (i.e. […] Thioflavin T in 250 mM phosphate buffer, pH 6.8). The fluorescence was read at 485 nm (444 nm excitation wavelength) using an ELISA plate fluorometer after subtraction with buffer alone or compound alone, as blank.

The target in experiment [4] is T1, Aβ 1-42 fibrils. The experiment is described as follows: Thioflavin T fluorometry, disruption of pre-formed Aβ 1-42 fibrils (Example 11). The note with it: 30 μg pre-fibrillized Aβ 1-42, 37° C., 3 days. An excerpt:
In one study, Thioflavin T fluorometry was used to determine the effects of the compounds, and of EDTA (as a negative control). In this assay Thioflavin T binds specifically to fibrillar amyloid, and this binding produces a fluorescence enhancement at 485 nm that is directly proportional to the amount of amyloid fibrils formed. The higher the fluorescence, the greater the amount of amyloid fibrils formed (Naki et al., Lab. Invest. 65:104-110, 1991; Levine III, Protein Sci. 2:404-410, 1993; Amyloid: Int. J. Exp. Clin. Invest. 2:1-6, 1995).
Following 3-days of co-incubation, 50 μl of each incubation mixture was transferred into a 96-well microtiter plate containing 150 μl of distilled water and 50 μl of a Thioflavin T solution (i.e. 500 mM Thioflavin T in 250 mM phosphate buffer, pH 6.8). The fluorescence was read at 485 nm (444 nm excitation wavelength) using an ELISA plate fluorometer after subtraction with buffer alone or compound alone, as blank.

Where [5] appears, read: Aβ:test compound wt/wt ratio 1:0.001.
Setting [6] is: Aβ:test compound wt/wt ratio 1:0.01.
[7] abbreviates: Aβ:test compound wt/wt ratio 1:0.1.
Setting [8] is: Aβ:test compound wt/wt ratio 1:1.
Setting [9] is: α-synuclein:test compound wt/wt ratio 1:0.001.
Where [10] appears, read: α-synuclein:test compound wt/wt ratio 1:0.01.
Setting [11] is: α-synuclein:test compound wt/wt ratio 1:0.1.
[12] abbreviates: α-synuclein:test compound wt/wt ratio 1:1.

T1 sequence (P05067 672-713): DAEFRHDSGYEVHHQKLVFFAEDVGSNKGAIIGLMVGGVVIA

Turning to `O=C(Nc1cc(O)c(O)cc1F)c1ccc(O)c(O)c1` [DC-0051-F5, N-(2-fluoro-4,5-dihydroxyphenyl)-3,4-dihydroxybenzamide], the “% Inhibition Aβ (result ± S.D.), Congo red binding” value in experiment [1] (setting [5]) came out at 0.0 ± 2.50%; in experiment [1] (setting [6]), 9.8 ± 2.54%; in experiment [1] (setting [7]) it was 25.7 ± 5.69%; in experiment [1] (setting [8]) it was 69.9 ± 2.06%. Also, the “% Inhibition α-synuclein (result ± S.D.), Congo red binding” value in experiment [2] (setting [9]) was 0.0 ± 1.01%; in experiment [2] (setting [10]), 5.0 ± 5.47%; in experiment [2] (setting [11]) it was 32.7 ± 3.96%; in experiment [2] (setting [12]), 69.4 ± 0.13%. Besides, the “disruption/disassembly of pre-formed α-synuclein fibrils, in words” value in experiment [3] is listed as “dose-dependent disruption/disassembly”. For the same compound, the “% Inhibition α-synuclein (result ± S.D.), Thioflavin T fluorometry” value in experiment [3] (setting [9]) is 5.9 ± 10.41%; in experiment [3] (setting [10]) it was 59.0 ± 1.18%; in experiment [3] (setting [11]), 94.7 ± 1.70%; in experiment [3] (setting [12]), 98.9 ± 0.65%. Also, the “% Inhibition Aβ (result ± S.D.), Thioflavin T fluorometry” value was determined as 19.5 ± 1.49% in experiment [4] (setting [5]), 43.9±2.01% in experiment [4] (setting [6]), 91.8±0.22% in experiment [4] (setting [7]) and 99.8 ± 0.40% in experiment [4] (setting [8]).
Consider `O=C(Nc1ccc(O)c(O)c1F)c1ccc(O)c(O)c1` [DC-0051-F6, N-(2-fluoro-3,4-dihydroxyphenyl)-3,4-dihydroxybenzamide], for which the “% Inhibition Aβ (result ± S.D.), Congo red binding” value was 3.7 ± 3.24% in experiment [1] (setting [5]), 6.8 ± 1.51% in experiment [1] (setting [6]), 18.3 ± 5.32% in experiment [1] (setting [7]) and 68.0 ± 2.11% in experiment [1] (setting [8]). The “% Inhibition α-synuclein (result ± S.D.), Congo red binding” value in experiment [2] (setting [9]) is 0.0 ± 4.20%; in experiment [2] (setting [10]), 1.4 ± 5.69%; in experiment [2] (setting [11]), 29.9 ± 2.41%; in experiment [2] (setting [12]) it was 59.8 ± 3.62%. Further, the “disruption/disassembly of pre-formed α-synuclein fibrils, in words” value in experiment [3] is listed as “dose-dependent disruption/disassembly”. For the same compound, the “% Inhibition α-synuclein (result ± S.D.), Thioflavin T fluorometry” value in experiment [3] (setting [9]) is reported as 4.2 ± 5.02%; in experiment [3] (setting [10]), 56.2 ± 1.49%; in experiment [3] (setting [11]), 94.7 ± 0.68%; in experiment [3] (setting [12]), 100.0 ± 1.98%. Further, the “% Inhibition Aβ (result ± S.D.), Thioflavin T fluorometry” value is 9.6 ± 0.96% in experiment [4] (setting [5]), 36.8 ± 3.43% in experiment [4] (setting [6]), 88.0 ± 1.09% in experiment [4] (setting [7]) and 99.4 ± 0.86% in experiment [4] (setting [8]).
